Patent US8048923B2, “Treatment of polyglutamine disorders caused by expanding genomic CAG nucleotides” (Odessa Pharma, priority 2003, dated 2011)

How the values were obtained:
Huntington's disease = conditions: patients, cited from earlier work; for slowing of progression of Huntington's disease: large-scale clinical trial
[1] = in vivo; cited from earlier work
glutamine synthetase = glutamine synthetase (Homo sapiens, UniProt P15104); conditions: cited from earlier work
[2] = system: Differentiated inducible PC12 cells; experiment: L-glutamine add-back to MSO treated PC12 culture; type: cell-based
Method: The cells are grown overnight and aggregation is calculated. Inhibition of aggregation proceeds in a concentration-dependent manner.
In contrast, the addition of L-GLN has no effect on the growth of cells not treated with MSO or cultures treated with subinhibitory concentrations of MSO.

[3] = system: brain levels of glutamine; conditions: MSO administered to normal animals; reduced from 5.6; cited from earlier work
[4] = system: Drosophila transgenic polyQ line P{UAS-Q48myc}^42; conditions: Q48 flies fed MSO; Q48 flies without MSO need an average of 26 sec
Method: Flies are mated at 25° C. as described in Nature 413, 739-743. Eggs are collected and transferred into vials at 29° C. containing standard food supplemented with MSO, and adults are transferred to vials containing fresh food every 3 days after eclosion.
A second phenotype associated with expanded polyQ expression is a decrease in motor function. This is assayed by using an “escape” or climbing assay as described in Exp. Gerontol.

[5] = system: Differentiated inducible PC12 cells; conditions: MSO 1-100 μM, low glutamine medium, overnight, fluorescent microscopy counts
Method: Cells (1×10^6) are plated in 10-cm plates using tissue culture medium low in glutamine to ensure that most of the glutamine in the cells is the product of de novo synthesis by cellular glutamine synthetase. […] MSO is added directly to the cell-culture media at final concentrations of 1-100 μM. The cells are grown overnight and aggregation is calculated. […] Visual counts of aggregates are performed by using fluorescent microscopy.

[6] = system: mice with the gene mutation for Huntington's disease (HD); conditions: cited from earlier work

glutamine synthetase, sequence (P15104 2-373 limits assumed, species assumed): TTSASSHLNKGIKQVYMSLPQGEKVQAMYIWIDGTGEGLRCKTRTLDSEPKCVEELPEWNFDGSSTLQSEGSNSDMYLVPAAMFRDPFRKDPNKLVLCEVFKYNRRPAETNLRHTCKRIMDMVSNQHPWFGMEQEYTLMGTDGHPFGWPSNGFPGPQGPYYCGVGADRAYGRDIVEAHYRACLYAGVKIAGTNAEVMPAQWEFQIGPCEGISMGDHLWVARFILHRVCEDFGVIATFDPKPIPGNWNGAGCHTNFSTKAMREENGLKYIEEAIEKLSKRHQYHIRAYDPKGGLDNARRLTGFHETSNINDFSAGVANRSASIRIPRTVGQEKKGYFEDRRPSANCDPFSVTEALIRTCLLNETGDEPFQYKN

Q: What does the source list for `COC1=C(OC)C(=O)C(C/C=C(\C)CC/C=C(\C)CC/C=C(\C)CC/C=C(\C)CC/C=C(\C)CC/C=C(\C)CC/C=C(\C)CC/C=C(\C)CC/C=C(\C)CCC=C(C)C)=C(C)C1=O` [Coenzyme Q10]?
A: slowing of progression of Huntington's disease (Huntington's disease): neither drug resulted in any significant improvement; disease progression after one year of treatment (Huntington's disease; one year of treatment, overall results inconclusive): seemed to progress more slowly

Q: With `CP(=O)(O)CCC(N)C(=O)O` [Glufosinate, ammonium-D-L-homoalanine-4-yl(methyl)-phosphinate] as the molecule, how does the “crossing of the blood brain barrier” value [1] read?
A: The value was “does not cross the blood brain barrier”.

Q: And the “type of inhibition of glutamine synthetase” value (glutamine synthetase)?
A: The value was “catalytic inhibitor”.

Q: For `NC(=O)CC[C@H](N)C(=O)O` [L-glutamine], which “toxic protein synthesis and aggregation after addition of L-glutamine” value ([2]; MSO treated culture) is on record?
A: Its value is “increased toxic protein synthesis and aggregation”.

Q: And the “growth of cells after addition of L-GLN” value ([2]; cells not treated with MSO or treated with subinhibitory concentrations of MSO)?
A: The value was “no effect”.

Q: What does the source list for `CS(=N)(=O)CC[C@H](N)C(=O)O` (stereo partly drawn) [MSO, L-methionine S-sulfoximine]?
A: brain levels of glutamine [3]: 1.8 mmol/kg brain; time to climb a defined distance up a vial (motor function) [4]: require less time to climb the same distance; type of inhibition of glutamine synthetase (glutamine synthetase): irreversible inhibitor; visible aggregate production (aggregation) [5]: inhibit aggregation

Q: Which “slowing of progression of Huntington's disease” value (Huntington's disease) does the source give for `CC(Cc1ccccc1)(NC(=O)CN)c1ccccc1` (stereo not shown) [Remacemide] here?
A: The value was “neither drug resulted in any significant improvement”.

Q: For `NCCSSCCN` [cystamine], which tremors and survival ([6]; HD mutation mice) is on record?
A: Its tremors and survival is “alleviate tremors and prolong life”.

Q: What about the “levels of neuroprotective proteins” value ([6]; mouse, in vivo) of the same molecule?
A: The value was “increase the levels of certain neuroprotective proteins”.
